Values quoted from earlier work, collected in patent publication US20070141100A1, “Drug-eluting biodegradable stent” (priority 2003, published 2007).
“Also recorded” adds a separate entry of the source. Values belong to the compound of their own block, whether it stands above or below them.

Columns and labels:
[1] = system: renal transplant recipients; details: everolimus trough serum concentrations above 7.8 ng/ml
[2] = system: neointimal proliferation; details: animal studies, compared with a control bare metal stent
[3] = system: tissue culture
[4] = glutaraldehyde used to crosslink materials
[5] = system: 3T3 fibroblasts; details: in vitro
[6] = system: Chinese hamster ovary (CHO-K1) cells; details: in vitro
[7] = system: mice; details: i.v.

solubility in water: non-water soluble
Compound: CO[C@H]1C[C@@H]2CC[C@@H](C)[C@@](O)(O2)C(=O)C(=O)N2CCCC[C@H]2C(=O)O[C@H]([C@H](C)C[C@@H]2CC[C@@H](O)[C@H](OC)C2)CC(=O)[C@H](C)/C=C(\C)[C@@H](O)[C@@H](OC)C(=O)[C@H](C)C[C@H](C)/C=C/C=C/C=C/1C [Sirolimus]

solubility in water: practically water insoluble
Compound: CC(=O)O[C@H]1C(=O)[C@@]2(C)[C@H]([C@H](OC(=O)c3ccccc3)[C@]3(O)C[C@H](OC(=O)[C@H](O)[C@@H](NC(=O)c4ccccc4)c4ccccc4)C(C)=C1C3(C)C)[C@]1(OC(C)=O)CO[C@@H]1C[C@@H]2O [Taxol, paclitaxel]

crosslinking concentration giving a persistent foreign-body reaction [4]: above 0.05%
Compound: O=CCCCC=O [glutaraldehyde]
cytotoxic at concentrations greater than [3]: 10-25 ppm
cytotoxic at concentrations as low as ([3]; in tissue culture): 3 ppm

More lines, now with the values behind:

Compound: CO[C@H]1C[C@@H]2CC[C@@H](C)[C@@](O)(O2)C(=O)C(=O)N2CCCC[C@H]2C(=O)O[C@H]([C@H](C)C[C@@H]2CC[C@@H](OCCO)[C@H](OC)C2)CC(=O)[C@H](C)/C=C(\C)[C@@H](O)[C@@H](OC)C(=O)[C@H](C)C[C@H](C)/C=C/C=C/C=C/1C [Everolimus]
solubility in water: poorly soluble in water
rate of thrombocytopenia [1]: 17%
reduction of neointimal proliferation [2]: 50%

Compound: COC(=O)C1=CO[C@@H](O)[C@@H]2C(CO)=CC[C@H]12 [genipin]
cytotoxicity compared with glutaraldehyde [5]: substantially less cytotoxic than glutaraldehyde; also recorded: significantly less cytotoxic than glutaraldehyde
clastogenic response (genotoxicity) [6]: does not cause clastogenic response
LD50 [7]: 382 mg/k
